Here are results for two compounds from publication PMC5290327, “SC83288 is a clinical development candidate for the treatment of severe malaria” (Nature Communications, 2017).

For series [1], the system named is P. falciparum strain W2. Description: Efficacy in the Pf/NSG mouse model. The settings on record: W2, humanized NSG mouse. The format is in vivo, Plasmodium falciparum.
Series [2] deals with P. falciparum strain 3D7. Description: Efficacy in the Pf/NSG mouse model. The following applies: 3D7, humanized NSG mouse. The class given is in vivo, Plasmodium falciparum.
Series [3] deals with T1, p38-alpha (Homo sapiens, UniProt Q16539).
T1 construct: purchased Ambit (DiscoverX) KINOMEscan; Cerep
Description: KINOMEscan. The format is binding. The settings on record: read-out: Remaining enzyme activity. The method, boiled down: (§1)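 Measures displacement of tagged kinase from an immobilized active-site probe rather than enzymatic activity. SC81458 was added at 10 μM final from a 40x stock in 100% DMSO. Bound kinase was eluted and counted via qPCR.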

For series [4], the target named is T2, ABL1(M351T) (Homo sapiens, UniProt P00519, M351T).
T2 construct: purchased Ambit (DiscoverX) KINOMEscan; Cerep
Description: KINOMEscan. The format is binding. The following applies: read-out: Remaining enzyme activity. Summed up:
as §1

The target of series [5] is T3, BRAF(V600E) (Homo sapiens, UniProt P15056, V600E).
T3 construct: purchased Ambit (DiscoverX) KINOMEscan; Cerep
In words: KINOMEscan. The format is binding. The settings on record: read-out: Remaining enzyme activity. Summed up:
as §1

The target of series [6] is T4, FLT3(D835H) (Homo sapiens, UniProt P36888, D835H).
T4 construct: purchased Ambit (DiscoverX) KINOMEscan; Cerep
Description: KINOMEscan. The class given is binding. The settings on record: read-out: Remaining enzyme activity. Summed up: as §1

Series [7] deals with T5, YES (Homo sapiens, UniProt P07947).
T5 construct: purchased Ambit (DiscoverX) KINOMEscan; Cerep
Description: KINOMEscan. The following applies: read-out: Remaining enzyme activity. The format is binding. Summed up: as §1

Series [8] addresses T6, RIOK1 (Homo sapiens, UniProt Q9BRS2).
T6 construct: purchased Ambit (DiscoverX) KINOMEscan; Cerep
In words: KINOMEscan. The class given is binding. The settings on record: read-out: Remaining enzyme activity. The method, boiled down:
as §1

Series [9] addresses T7, PIK3CA(E545A) (Homo sapiens, UniProt P42336, E545A).
T7 construct: purchased Ambit (DiscoverX) KINOMEscan; Cerep
In words: KINOMEscan. The class given is binding. The settings on record: read-out: Remaining enzyme activity. The method, boiled down: as §1

The target of series [10] is T8, PLK1 (Homo sapiens, UniProt P53350).
T8 construct: purchased Ambit (DiscoverX) KINOMEscan; Cerep
T8 sequence (P53350 whole entry): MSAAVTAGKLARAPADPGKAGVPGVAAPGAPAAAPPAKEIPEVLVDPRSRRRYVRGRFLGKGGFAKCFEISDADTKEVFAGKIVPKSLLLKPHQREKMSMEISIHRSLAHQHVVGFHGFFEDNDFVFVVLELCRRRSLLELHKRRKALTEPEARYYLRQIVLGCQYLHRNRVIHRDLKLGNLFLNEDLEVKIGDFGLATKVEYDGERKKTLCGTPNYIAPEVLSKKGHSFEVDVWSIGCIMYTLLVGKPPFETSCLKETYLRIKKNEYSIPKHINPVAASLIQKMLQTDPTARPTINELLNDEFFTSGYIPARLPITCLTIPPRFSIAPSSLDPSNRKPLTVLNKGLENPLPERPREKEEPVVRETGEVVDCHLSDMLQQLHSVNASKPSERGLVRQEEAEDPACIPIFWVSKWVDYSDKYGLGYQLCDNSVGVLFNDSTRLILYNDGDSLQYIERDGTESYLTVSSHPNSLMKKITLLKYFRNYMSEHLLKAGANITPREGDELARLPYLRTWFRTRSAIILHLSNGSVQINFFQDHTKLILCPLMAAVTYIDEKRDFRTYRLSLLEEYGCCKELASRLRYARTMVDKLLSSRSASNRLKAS
Description: KINOMEscan. The class given is binding. The settings on record: read-out: Remaining enzyme activity. The method, boiled down:
as §1

The target of series [11] is T9, RPS6KA5(Kin.Dom.1-N-term) (Homo sapiens, UniProt O75582).
T9 construct: RPS6KA5(Kin.Dom.1-N-term); purchased Ambit (DiscoverX) KINOMEscan; Cerep
Description: KINOMEscan. The class given is binding. The following applies: read-out: Remaining enzyme activity. Summed up: as §1

Series [12] has as its target T10, RPS6KA1(Kin.Dom.1-N-term) (Homo sapiens, UniProt Q15418).
T10 construct: RPS6KA1(Kin.Dom.1-N-term); purchased Ambit (DiscoverX) KINOMEscan; Cerep
In words: KINOMEscan. The class given is binding. The following applies: read-out: Remaining enzyme activity. The method, boiled down:
as §1

Series [13] deals with T11, DAPK2 (Homo sapiens, UniProt Q9UIK4).
T11 construct: purchased Ambit (DiscoverX) KINOMEscan; Cerep
In words: KINOMEscan. The class given is binding. The settings on record: read-out: Remaining enzyme activity. The method, boiled down: as §1

Series [14] concerns the target T12, MEK2 (Homo sapiens, UniProt P36507).
T12 construct: purchased Ambit (DiscoverX) KINOMEscan; Cerep
Description: KINOMEscan. The class given is binding. The settings on record: read-out: Remaining enzyme activity. The method, boiled down: as §1

For series [15], the target named is T13, MST1 (Homo sapiens, UniProt Q13043).
T13 construct: purchased Ambit (DiscoverX) KINOMEscan; Cerep
T13 sequence (Q13043 whole entry): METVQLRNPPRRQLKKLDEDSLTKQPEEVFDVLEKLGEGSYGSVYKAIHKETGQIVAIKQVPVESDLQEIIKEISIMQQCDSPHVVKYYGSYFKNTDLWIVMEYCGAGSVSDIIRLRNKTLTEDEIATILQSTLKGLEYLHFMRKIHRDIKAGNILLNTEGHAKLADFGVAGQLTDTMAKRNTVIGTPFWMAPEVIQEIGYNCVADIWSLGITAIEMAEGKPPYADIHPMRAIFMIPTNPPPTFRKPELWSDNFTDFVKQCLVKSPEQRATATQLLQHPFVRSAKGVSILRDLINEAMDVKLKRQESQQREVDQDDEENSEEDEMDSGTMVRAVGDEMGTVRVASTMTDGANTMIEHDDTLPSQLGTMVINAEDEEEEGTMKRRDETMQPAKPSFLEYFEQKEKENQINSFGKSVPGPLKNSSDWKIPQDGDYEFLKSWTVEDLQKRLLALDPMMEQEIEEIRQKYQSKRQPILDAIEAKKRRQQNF
In words: KINOMEscan. The class given is binding. The following applies: read-out: Remaining enzyme activity. The method, boiled down:
as §1

Series [16] addresses T14, MAP3K4 (Homo sapiens, UniProt Q9Y6R4).
T14 construct: purchased Ambit (DiscoverX) KINOMEscan; Cerep
In words: KINOMEscan. The class given is binding. The settings on record: read-out: Remaining enzyme activity. The method, boiled down:
as §1

The target in series [17] is T15, IKK-epsilon (Homo sapiens, UniProt Q14164).
T15 construct: purchased Ambit (DiscoverX) KINOMEscan; Cerep
In words: KINOMEscan. The class given is binding. The following applies: read-out: Remaining enzyme activity. Summed up:
as §1

The target of series [18] is T16, TYK2(JHdomain-speudokinase) (Homo sapiens, UniProt P29597).
T16 construct: TYK2(JHdomain-speudokinase); purchased Ambit (DiscoverX) KINOMEscan; Cerep
In words: KINOMEscan. The format is binding. The following applies: read-out: Remaining enzyme activity. Summed up: as §1

The target in series [19] is T17, RIPK2 (Homo sapiens, UniProt O43353).
T17 construct: purchased Ambit (DiscoverX) KINOMEscan; Cerep
T17 sequence (O43353 whole entry): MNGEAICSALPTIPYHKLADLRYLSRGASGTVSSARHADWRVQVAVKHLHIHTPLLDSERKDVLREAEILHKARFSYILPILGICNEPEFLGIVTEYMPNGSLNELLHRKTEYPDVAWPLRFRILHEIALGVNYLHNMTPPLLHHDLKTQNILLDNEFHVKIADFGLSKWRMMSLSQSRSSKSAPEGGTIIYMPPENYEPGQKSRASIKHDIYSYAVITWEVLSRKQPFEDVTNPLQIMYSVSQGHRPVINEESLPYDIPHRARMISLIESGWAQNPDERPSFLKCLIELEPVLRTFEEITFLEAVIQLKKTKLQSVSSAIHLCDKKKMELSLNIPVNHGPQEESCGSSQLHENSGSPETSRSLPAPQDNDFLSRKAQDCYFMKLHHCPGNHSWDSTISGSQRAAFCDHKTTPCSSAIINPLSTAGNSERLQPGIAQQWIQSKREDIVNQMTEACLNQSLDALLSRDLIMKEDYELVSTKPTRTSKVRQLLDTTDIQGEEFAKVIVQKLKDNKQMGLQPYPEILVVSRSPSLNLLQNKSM
In words: KINOMEscan. The format is binding. The settings on record: read-out: Remaining enzyme activity. Summed up:
as §1

For series [20], the target named is T18, HPK1 (Homo sapiens, UniProt Q92918).
T18 construct: purchased Ambit (DiscoverX) KINOMEscan; Cerep
In words: KINOMEscan. The class given is binding. The settings on record: read-out: Remaining enzyme activity. Summed up: as §1

Series [21] concerns the target T19, CSNK1e (Homo sapiens, UniProt P49674).
T19 construct: purchased Ambit (DiscoverX) KINOMEscan; Cerep
Description: KINOMEscan. The class given is binding. The settings on record: read-out: Remaining enzyme activity. Summed up:
as §1

The target of series [22] is T20, NDR2 (Homo sapiens, UniProt Q9Y2H1).
T20 construct: purchased Ambit (DiscoverX) KINOMEscan; Cerep
T20 sequence (Q9Y2H1 whole entry): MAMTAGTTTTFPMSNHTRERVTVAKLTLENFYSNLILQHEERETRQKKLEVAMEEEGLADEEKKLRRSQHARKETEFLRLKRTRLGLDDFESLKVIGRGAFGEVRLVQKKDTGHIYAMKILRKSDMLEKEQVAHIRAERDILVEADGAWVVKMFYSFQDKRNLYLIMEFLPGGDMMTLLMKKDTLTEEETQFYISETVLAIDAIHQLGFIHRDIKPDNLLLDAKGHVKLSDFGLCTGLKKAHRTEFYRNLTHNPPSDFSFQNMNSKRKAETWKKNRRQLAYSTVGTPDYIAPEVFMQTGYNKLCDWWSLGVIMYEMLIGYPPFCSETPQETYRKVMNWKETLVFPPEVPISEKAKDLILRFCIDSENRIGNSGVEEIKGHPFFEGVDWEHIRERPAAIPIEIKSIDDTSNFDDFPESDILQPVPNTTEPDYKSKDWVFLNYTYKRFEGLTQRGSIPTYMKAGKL
In words: KINOMEscan. The following applies: read-out: Remaining enzyme activity. The format is binding. The method, boiled down: as §1

In series [23] the target is T21, TSSK1B (Homo sapiens, UniProt Q9BXA7).
T21 construct: purchased Ambit (DiscoverX) KINOMEscan; Cerep
Description: KINOMEscan. The format is binding. The settings on record: read-out: Remaining enzyme activity. Summed up: as §1

For series [24], the target named is T22, PDPK1 (Homo sapiens, UniProt O15530).
T22 construct: purchased Ambit (DiscoverX) KINOMEscan; Cerep
T22 sequence (O15530 whole entry): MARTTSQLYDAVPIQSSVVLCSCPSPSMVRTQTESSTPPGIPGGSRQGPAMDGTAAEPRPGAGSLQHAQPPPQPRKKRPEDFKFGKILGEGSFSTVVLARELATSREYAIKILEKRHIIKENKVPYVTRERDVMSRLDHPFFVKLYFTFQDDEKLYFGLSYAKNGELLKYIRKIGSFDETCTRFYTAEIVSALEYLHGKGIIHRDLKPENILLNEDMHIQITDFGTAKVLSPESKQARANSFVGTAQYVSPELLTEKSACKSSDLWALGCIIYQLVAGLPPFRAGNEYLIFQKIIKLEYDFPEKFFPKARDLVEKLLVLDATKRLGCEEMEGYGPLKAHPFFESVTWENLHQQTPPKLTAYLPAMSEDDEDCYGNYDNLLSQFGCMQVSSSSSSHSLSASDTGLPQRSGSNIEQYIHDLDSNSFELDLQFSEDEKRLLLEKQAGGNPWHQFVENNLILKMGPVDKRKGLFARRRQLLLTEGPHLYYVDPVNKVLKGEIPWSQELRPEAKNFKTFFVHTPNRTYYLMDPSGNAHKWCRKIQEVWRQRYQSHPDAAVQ
Description: KINOMEscan. The class given is binding. The settings on record: read-out: Remaining enzyme activity. The method, boiled down:
as §1

For series [25], the target named is T23, JAK1(JH2domain-pseudokinase) (Homo sapiens, UniProt P23458).
T23 construct: JAK1(JH2domain-pseudokinase); purchased Ambit (DiscoverX) KINOMEscan; Cerep
In words: KINOMEscan. The class given is binding. The settings on record: read-out: Remaining enzyme activity. Summed up:
as §1

For series [26], the target named is T24, SgK110 (Homo sapiens, UniProt P0C264).
T24 construct: purchased Ambit (DiscoverX) KINOMEscan; Cerep
Description: KINOMEscan. The format is binding. The settings on record: read-out: Remaining enzyme activity. Summed up: as §1

The test system of series [27] is FLT3(ITD). In words: KINOMEscan. The class given is binding, human. The settings on record: 10 μM. How it is done: The KINOMEscan was carried out by Ambit (San Diego, USA) according to a previously established protocol. The experiment was based on a competition binding assay that quantitatively measures the ability of a compound to compete with an immobilized, active-site directed ligand. The assay is performed by combining three components: DNA-tagged kinase; immobilized ligand; and a test compound. The ability of the test compound to compete with the immobilized ligand is measured via quantitative PCR of the DNA tag.
For most assays, kinase-tagged T7 phage strains were grown in parallel in 24-well blocks in an Escherichia coli host derived from the BL21 strain. E. coli were grown to log-phase and infected with T7 phage from a frozen stock and incubated with shaking at 32 °C until lysis (90–150 min). The lysates were centrifuged (6,000g) and filtered (0.2 μm) to remove cell debris. The remaining kinases were produced in HEK-293 cells (Sigma Aldrich, catalogue number: 85120602) and subsequently tagged with DNA for quantitative PCR detection. […] The liganded beads were blocked with excess biotin and washed with blocking buffer (SeaBlock (Pierce), 1% bovine serum albumin, 0.05% Tween 20 and 1 mM dithiothreitol) to remove unbound ligand and to reduce non-specific phage binding. […] The kinase concentration in the eluates was measured by quantitative PCR.

Series [28] can be described thus: Allometric scaling, prediction of human PK.
Series [29] deals with Dd2 trophozoites. Description: In vitro speed of action, clearance of trophozoites (Vial protocol). The format is cell-based, Plasmodium falciparum. The following applies: 500 nM.

T10 sequence (Q15418 62-321 limits assumed): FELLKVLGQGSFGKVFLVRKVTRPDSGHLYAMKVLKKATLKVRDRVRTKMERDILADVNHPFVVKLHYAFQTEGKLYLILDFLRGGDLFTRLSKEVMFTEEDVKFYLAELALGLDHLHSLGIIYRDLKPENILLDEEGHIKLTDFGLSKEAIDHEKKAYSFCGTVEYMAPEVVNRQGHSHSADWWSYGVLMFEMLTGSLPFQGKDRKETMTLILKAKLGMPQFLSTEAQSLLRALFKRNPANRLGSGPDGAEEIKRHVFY
T14 sequence (Q9Y6R4 whole entry): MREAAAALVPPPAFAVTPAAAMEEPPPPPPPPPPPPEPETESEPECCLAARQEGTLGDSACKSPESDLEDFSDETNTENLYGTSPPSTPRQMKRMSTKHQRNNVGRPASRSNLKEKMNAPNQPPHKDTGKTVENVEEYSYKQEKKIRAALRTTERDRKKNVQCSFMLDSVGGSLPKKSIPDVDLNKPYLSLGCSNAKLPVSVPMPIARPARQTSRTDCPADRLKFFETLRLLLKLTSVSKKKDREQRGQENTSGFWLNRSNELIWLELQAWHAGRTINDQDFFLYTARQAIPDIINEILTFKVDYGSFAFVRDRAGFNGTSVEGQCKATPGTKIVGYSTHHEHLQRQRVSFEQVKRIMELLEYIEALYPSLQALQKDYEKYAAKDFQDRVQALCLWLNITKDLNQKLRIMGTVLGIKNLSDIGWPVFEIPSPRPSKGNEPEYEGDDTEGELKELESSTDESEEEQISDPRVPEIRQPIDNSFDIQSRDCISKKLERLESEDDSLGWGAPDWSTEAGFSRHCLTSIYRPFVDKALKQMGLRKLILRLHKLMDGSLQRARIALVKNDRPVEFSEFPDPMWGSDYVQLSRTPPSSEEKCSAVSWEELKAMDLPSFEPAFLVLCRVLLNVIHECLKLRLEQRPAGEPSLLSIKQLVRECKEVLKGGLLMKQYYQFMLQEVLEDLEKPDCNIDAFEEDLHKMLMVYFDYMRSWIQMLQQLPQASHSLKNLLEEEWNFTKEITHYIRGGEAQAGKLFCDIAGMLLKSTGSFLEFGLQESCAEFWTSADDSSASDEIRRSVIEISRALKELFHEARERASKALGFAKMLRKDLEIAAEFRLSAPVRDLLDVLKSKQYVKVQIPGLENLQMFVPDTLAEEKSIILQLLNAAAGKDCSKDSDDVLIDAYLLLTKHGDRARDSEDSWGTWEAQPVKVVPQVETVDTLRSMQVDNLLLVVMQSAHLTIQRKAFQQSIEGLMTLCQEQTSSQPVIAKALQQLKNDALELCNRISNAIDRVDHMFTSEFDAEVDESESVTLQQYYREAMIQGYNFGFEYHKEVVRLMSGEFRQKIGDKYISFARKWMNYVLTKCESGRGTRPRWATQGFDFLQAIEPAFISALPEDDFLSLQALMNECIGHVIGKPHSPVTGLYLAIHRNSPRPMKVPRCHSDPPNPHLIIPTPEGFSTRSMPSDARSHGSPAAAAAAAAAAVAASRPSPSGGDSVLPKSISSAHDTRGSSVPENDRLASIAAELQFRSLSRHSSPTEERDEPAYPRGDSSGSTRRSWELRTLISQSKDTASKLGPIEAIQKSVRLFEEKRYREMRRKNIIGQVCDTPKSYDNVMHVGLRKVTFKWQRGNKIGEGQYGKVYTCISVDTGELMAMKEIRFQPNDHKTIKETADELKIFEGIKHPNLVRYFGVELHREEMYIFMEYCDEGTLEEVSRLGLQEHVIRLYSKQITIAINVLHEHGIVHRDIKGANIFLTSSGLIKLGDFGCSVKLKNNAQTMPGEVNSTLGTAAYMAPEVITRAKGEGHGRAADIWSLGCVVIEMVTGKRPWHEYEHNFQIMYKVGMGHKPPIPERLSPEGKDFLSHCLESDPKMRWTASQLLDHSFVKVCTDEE
T19 sequence (P49674 whole entry): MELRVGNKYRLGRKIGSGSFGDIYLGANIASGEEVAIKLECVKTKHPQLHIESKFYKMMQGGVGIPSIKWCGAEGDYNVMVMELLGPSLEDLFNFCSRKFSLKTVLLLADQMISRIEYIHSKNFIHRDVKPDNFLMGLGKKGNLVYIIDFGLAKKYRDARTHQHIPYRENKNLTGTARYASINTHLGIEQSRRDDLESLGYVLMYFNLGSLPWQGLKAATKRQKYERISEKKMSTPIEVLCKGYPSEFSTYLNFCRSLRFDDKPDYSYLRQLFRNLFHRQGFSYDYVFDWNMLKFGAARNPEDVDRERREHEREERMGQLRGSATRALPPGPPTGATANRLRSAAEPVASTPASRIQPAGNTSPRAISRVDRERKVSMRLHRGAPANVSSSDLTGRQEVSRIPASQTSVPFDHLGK

For `CCCCN1CCN(C(=N)c2cccc(NC(=O)Nc3ccc(S(=O)(=O)NCc4ccc(S(N)(=O)=O)cc4)cc3)c2)CC1` [SC81458, 4-(3-(3-((4-butylpiperazin-1-yl)(imino)methyl)phenyl)ureido)-N-(4-sulfamoylbenzyl) benzenesulfonamide], the entries for the “In vivo logPRR” value in series [1] and in [2] were 5.3 and 3.2, respectively. In addition, the remaining binding at 10 µM in series [3] is 88%; in [4] it was 100%; in series [5] it was 100%; in series [6], 100%; in [7] it was 97%; in series [8] it was 75%. Besides, the remaining binding at 10 µM in [9] was 100%; in series [10], 96%; in series [11], 96%; in [12], 100%; in [13], 100%; in series [14], 100%. Further, the remaining binding at 10 µM worked out at 100% in [15]; 100% in [16]; 100% in series [17]; 93% in series [18]; 96% in series [19]; 100% in [20]. Besides, the remaining binding at 10 µM in series [21] came to 100%; in series [22] it was 100%; in series [23], 97%; in series [24], 74%; in [25] it was 89%; in [26], 100%. This compound also had a Remaining enzyme activity in series [27] of 85%.
In the case of `COC(=O)N1CCN(C(=N)c2cccc(NC(=O)Nc3ccc(S(=O)(=O)NCc4ccc(S(N)(=O)=O)cc4)cc3)c2)CC1` [SC83288, methyl 4-(imino(3-(3-(4-(N-(4-sulfamoylbenzyl)sulfamoyl)phenyl)ureido)phenyl)methyl) piperazine-1-carboxylate], in [28] (allometric scaling, rule of exponents), the “predicted human plasma clearance” value is 14.7 L/h. Also, in series [28] (human), the “total plasma clearance rate (higher estimate)” value is on record as 15,180 ml h^−1. The “total plasma concentration for […] the free MPC” value in series [28] (human projection, assuming 78% plasma protein binding) is 860 ng/mL. The “exposure time to clear a 0.5% parasitemia” value in [29] was not above 3 ± 1 h.
